The subject of data set [1] is MCF-7 breast carcinoma cells. As to the kind of experiment: Suppression of thymidine incorporation, dose-response (FIG. 13). It counts as cell-based, human. The note with it: MCF-7 with 17-β-estradiol, 72 h; oleanolic acid statement at concentrations of 1 μM or less. The method, then: (§1) Inhibitors of cell proliferation are known to be useful chemopreventive and chemotherapeutic agents. CDDO was tested against a wide variety of cells derived from highly aggressive leukemias and carcinomas, as well as from non-neoplastic tissues. NRP-152 cells were grown as described in Danielpour et al., 1994. MCF-7 cells were grown in phenol red-free RPMI 1640/10% charcoal-stripped FBS with added 17-β-estradiol (10 μM). Triterpenoids were added at the time of plating, and 72 h later ^3H-thymidine (1 μCi/well) was added for the final 2 h of incubation. Incorporation of thymidine was measured after cells were precipitated with TCA (10%), washed, and solubilized. The symbols used in FIG. 13 are CDDO, ▪; TP-82, ◯; and oleanolic acid; ●.

For data set [2], the system named is NRP-152 non-malignant prostate epithelium cells. The description is as above. The data set is classed as cell-based, rat. The note with it: NRP-152, 72 h; oleanolic acid statement at concentrations of 1 μM or less. The method, then:
as §1

In data set [3] the test system is LCDB acute myelogenous leukemia cell line. As to the kind of experiment: Monocytic differentiation, α-naphthyl acetate esterase staining. The note with it: TGF-β1 2.5 ng/ml, 48 h. The data set is classed as cell-based, human. Here is the method:
CDDO induces monocytic differentiation in the poorly differentiated LCDB acute myelogenous leukemia cell line, derived from a chemotherapy-resistant patient at the NCI Pediatric Oncology Branch. FIG. 11 illustrates LCDB cells seeded in RPMI 1640/2% FBS, either alone (11A), with 2.5 ng/ml TGF-β1 (11B), with 10^−8 M CDDO (11C), or with both TGF-β1 and CDDO (11D). After 48 h, cytospin slide preparations were made and stained for α-naphthyl acetate esterase activity (kit from Sigma). PC12 cells were cultured for 5 days in gridded dishes in DMEM/10% FBS and 5% horse serum (Smith et al., 1997), either alone (11E), with 100 ng/ml 7S NGF (11F), with 10^−6 M CDDO (11G), or with both NGF and CDDO (11H). […] Methods for quantitative image analysis of size of cells and neurites have been described (De 1a Torre et al., 1997). Control cells in FIG. 11E are approximately 10 μm in diameter. 3T3-L1 cells were grown to confluency in DMEM/5% calf serum, and then treated once with CDDO in DMEM/10% FBS (FIG. 12A) or with CDDO and/or LG100268 in DMEM/10% FBS (FIG. 12B). Every two days thereafter, medium was changed to DMEM/10% FBS, without added CDD0 or LG100268. Cells were harvested on day 8 (FIG. 12A) or day 6 (FIG. 12B), and GPDH was measured in lysates, using a standard assay for consumption of NADH at 340 nm (Wise and Green, 1979).

Data set [4] deals with IFN-γ-induced NO production in mouse macrophages. The experiment in a line: Inhibition of IFN-γ induced NO production in mouse macrophages. It counts as cell-based. The note with it: Mus musculus, Macrophage; 4 ng/mL IFN-γ, 48 hours, nitrite by Griess reaction; average of two separate experiments; read-out: IC50 for Inhibition of IFN-γ-Induced NO Production in Mouse Macrophages. Here is the method: The inhibitory activities of these compounds and dexamethasone on IFN-γ induced NO production in mouse macrophages is shown below in Table 1. The following procedure for the assay ws used. Macrophages were harvested from female mice injected intraperitoneally four days previously with 4% thioglycollate. These cells were seeded in 96-well tissue culture plates and incubated with 4 ng/mL IFN-γ in the presence or absence of inhibitory test compounds. After 48 hours NO production (measured as nitrite by the Griess reaction) was determined. Full details of the assay are given in Ding et al., 1990; Bogdan et al., 1992.
Background: The Griess reaction detects nitrite, a stable product of nitric oxide.

As a reminder, the IC50 is the concentration needed to halve the response being measured.

With “3,11-dioxoolean-1,9-dien-28oic acid [TP-82]”, the suppressing thymidine incorporation entry in data set [1] and in data set [2] was “markedly less active” in each case. For the compound `CC1(C)CC[C@]2(C(=O)O)CC[C@]3(C)C(=CC[C@@H]4[C@@]5(C)CC[C@H](O)C(C)(C)[C@@H]5CC[C@]43C)[C@@H]2C1` [oleanolic acid, reference compound], the suppressing thymidine incorporation result in data set [1] and in data set [2] was “virtually without activity” in each case.

Regarding TGF-01: transforming growth factor-β1, the “induction of α-naphthyl esterase activity (monocytic differentiation)” value in data set [3] is “induced x-naphthyl esterase activity”. For `C[C@@H]1C[C@H]2[C@@H]3CCC4=CC(=O)C=C[C@]4(C)[C@@]3(F)[C@@H](O)C[C@]2(C)[C@@]1(O)C(=O)CO` [dexamethasone, reference compound], the IC50 in data set [4] was determined as 1 nM.

These data come from patent US20080234368A9, “Therapeutic compositions and methods of use” (Trustees of Dartmouth College, priority 1998, published 2008).
